The results in this text go back to patent publication US20030236276A1, “Pyrrolo[2.1-a]isoquinoline derivatives” (priority 2001, published 2003).

Assay [1] deals with T1, PDE 10a (Homo sapiens, UniProt Q9Y233).
T1 construct: Full-length recombinant PDE 10a was expressed in Sf9 insect cells; made in house; host or cells: Sf9 insect cells (baculovirus, Bac-to-Bac)
Briefly: In vitro enzyme inhibition assay (PDE 10a, scintillation proximity, [3H]cAMP substrate). Type of assay: biochemical. To be noted: full-length recombinant PDE 10a, crude Sf9 cell lysate; 60 minutes, room temperature. Here is the method:
In vitro Enzyme Inhibition Assay:
Full-length recombinant PDE 10a was expressed in Sf9 insect cells (Invitrogen, Carlsbad, Calif., U.S.A.) using the Bac-to-Bac™ Baculovirus Expression System (Life Technologies, Gaithersburg, Md., U.S.A.). 48 hours post infection, cells were harvested and resuspended in 20 mL (per 1L culture) Lysis Buffer (50 mM Tris-HCl, pH 7.4, 50 mM NaCl, 1 mM MgCl2, 1.5 mM EDTA, 10% glycerol plus 20 μL Protease Inhibitor Cocktail Set III [CalBiochem, La Jolla, Calif., U.S.A.]). Cells were sonicated at 4° C. for 1 minute and centrifuged at 10,000 RPM for 30 minutes at 4° C. Supernatant was removed and stored at −20° C. for activity assays.
The test compounds were serially diluted in DMSO using two-fold dilutions to stock concentrations ranging typically from 200 μM to 1.6 μM (final concentrations in the assay range from 4 μM to 0.032 μM). 96-well assay isoplates (Wallac Inc., Atlanta, Ga., U.S.A.) were loaded with 2 μL of the serially diluted individual test compounds followed by 50 μL of a dilution of crude recombinant PDE 10a-containing sf9 cell lysate. The dilution of the lysate was selected such that less than 70% of the substrate is converted during the later incubation (typical dilution: 1:10000; dilution buffer: 50 mM Tris/HCl pH 7.5, 8.3 mM MgCl2, 1.7 mM EDTA, 0.2% BSA). The substrate, [5′,8-^3H] adenosine 3′,5′-cyclic phosphate (1 μCi/μL; Amersham Pharmacia Biotech., Piscataway, N.J., U.S.A.), was diluted 1:2000 in assay buffer (assay buffer: 50 mM Tris/HCl pH 7.5, 8.3 mM MgCl2, 1.7 mM EDTA) to give a final working concentration of 0.0005 μCi/μL. The enzymatic assay was initiated by addition of 50 μL (0.025 μCi) of diluted substrate. Reactions were incubated at room temperature for 60 minutes and terminated by addition of 25 μL of 18 mg/mL Yttrium Scintillation Proximity Beads (Amersham Pharmacia Biotech., Piscataway, N.J., U.S.A.). Plates were sealed and incubated at room temperature for 60 minutes. Plates were read for 30 seconds/well using a Microbeta counter (Wallac Inc., Atlanta, Ga., U.S.A.). The IC50 values were determined by plotting compound concentration versus percent inhibition.
Background: SPA uses beads or plates that emit light when radiolabelled molecules are held near them.

The test system of assay [2] is MDA-MB-231 human breast carcinoma cells. Briefly: In vitro proliferation inhibition assay (LDH activity, 72 hours). Type of assay: cell-based. To be noted: MDA-MB-231 cells; for inhibition at 10 µM: read-out: % inhibition at a concentration of 10 μM; for inhibition at 2 µM: read-out: % inhibition at a concentration of 2 μM. Here is the method:
In vitro Proliferation Inhibition Assay:
MDA-MB-231 human breast carcinoma cells (ATCC #HTB26) were cultured in standard growth medium (DMEM), supplemented with 10% heat-inactivated FBS, 10 mM HEPES, 2 mM glutamine, 100 U/mL penicillin, and 100 μg/mL streptomycin) at 37° C. in 5% CO2 (vol/vol) in a humidified incubator. Cells were plated at a density of 3000 cells per well in 100 μL growth medium in a 96 well culture dish. 24 hours after plating, lactate dehydrogenase (LDH) activity was determined using the Cytotox 96 Non-radioactive Cytotoxicity Kit (Promega, Madison Wis., U.S.A.) to yield T0h LDH values. Briefly, cells were lysed with the addition of 200 μL of Lysis Buffer (included in the Promega Kit) and lysates were further diluted 1:50 in Lysis Buffer. 50 μL of diluted cell lysate were transferred to a fresh 96 well culture plate. The assay was initiated with the addition of 50 μL of substrate per well. Color development was allowed to proceed for 10-15 minutes. The assay was terminated with the addition of 50 μL of Stop Solution (included in the Promega Kit). Optical densities were determined spectrophotometrically at 490 nm in a 96 well plate reader (SpectraMax 250, Molecular Devices, Sunnyvale, Calif., U.S.A.).
Test compounds were dissolved in 100% DMSO to prepare 10 mM stocks. Stocks were further diluted 1:250 in growth medium to yield working stocks of 40 μM test compound in 0.4% DMSO. Test compounds were serially diluted in growth medium containing 0.4% DMSO to maintain constant DMSO concentrations for all wells. 50 μL of fresh growth medium and 50 μL of diluted test compound were added to each culture well to give a final volume of 200 μL. The cells with and without individual test compounds were incubated for 72 hours at which time LDH activity was measured to yield T72h values. Optionally, the IC50 values can be determined with a least squares analysis program using compound concentration versus percent inhibition.
% Inhibition=[1−(T72h test−T0h)/(T72h ctrl−T0h)]×100
T72h test=LDH activity at 72 hours in the presence of test compound
T72h ctrl=LDH activity at 72 hours in the absence of test compound
T0h=LDH activity at Time Zero

T1 sequence (Q9Y233 1-779 isoform Q9Y233-1): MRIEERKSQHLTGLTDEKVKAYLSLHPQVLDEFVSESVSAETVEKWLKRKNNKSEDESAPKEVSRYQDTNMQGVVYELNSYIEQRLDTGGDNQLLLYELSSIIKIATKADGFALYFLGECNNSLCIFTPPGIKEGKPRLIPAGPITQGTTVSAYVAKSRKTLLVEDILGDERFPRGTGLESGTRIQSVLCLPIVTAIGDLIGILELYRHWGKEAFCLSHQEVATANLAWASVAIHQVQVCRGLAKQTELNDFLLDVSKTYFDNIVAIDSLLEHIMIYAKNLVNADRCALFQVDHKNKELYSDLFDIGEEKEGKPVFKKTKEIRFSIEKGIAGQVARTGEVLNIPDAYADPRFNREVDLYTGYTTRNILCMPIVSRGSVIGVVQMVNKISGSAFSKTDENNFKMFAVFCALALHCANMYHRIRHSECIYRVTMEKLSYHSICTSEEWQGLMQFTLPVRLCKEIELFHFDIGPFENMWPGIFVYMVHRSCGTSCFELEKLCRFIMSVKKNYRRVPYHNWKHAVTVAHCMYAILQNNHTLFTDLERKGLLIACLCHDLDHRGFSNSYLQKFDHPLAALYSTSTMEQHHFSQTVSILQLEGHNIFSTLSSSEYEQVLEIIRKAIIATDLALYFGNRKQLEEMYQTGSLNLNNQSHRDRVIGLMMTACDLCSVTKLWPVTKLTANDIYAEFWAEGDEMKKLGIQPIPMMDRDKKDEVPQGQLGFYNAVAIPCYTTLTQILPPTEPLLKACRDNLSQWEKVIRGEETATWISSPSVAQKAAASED

The term IC50 denotes the concentration that inhibits the measured activity by half. `CCOC(=O)c1c(C(C)C)c(C)n2c1-c1cc(OC)c(OC)cc1CC2` [Example 5]: in assay [1], the concentration for half-maximal inhibition (IC50) was found to be 370 nM. Further, the inhibition at 10 µM in assay [2] was 87%.
The matching figures for `CCOC(=O)c1c(-c2cccc3ncc(C)cc23)c(C)n2c1-c1cc(OC)c(OC)cc1CC2` [Example 7]: 140 nM and 85%.
The matching figures for `CCOC(=O)c1c(-c2cn(C(C)=O)c3ccccc23)c(C)n2c1-c1cc(OC)c(OC)cc1CC2` [Example 8]: 94 nM and 84%.
Regarding `CCOC(=O)c1c(-c2c[nH]c3ccc(OC)cc23)c(C)n2c1-c1cc(OC)c(OC)cc1CC2` [Example 12], the IC50 in assay [1] was 365 nM. Besides, in assay [2], the inhibition at 2 µM was found to be 73%.
In the case of `CCOC(=O)c1c(-c2cn(C)c3ccccc23)c(C)n2c1-c1cc(OC)c(OC)cc1CC2` [Example 23], the IC50 in assay [1] was 71 nM. For the same molecule, the inhibition at 2 µM in assay [2] amounted to 90%.
In the case of `CCOC(=O)c1c(-c2c[nH]c3c(OC)cccc23)c(C)n2c1-c1cc(OC)c(OC)cc1CC2` [Example 46, Ethyl-2-(1H-7-methoxy-indol-3-yl)-8,9-dimethoxy-3-methyl-5,6-dihydropyrrolo[2,1-a]isoquinoline-1-carboxylate], in assay [1], the half-inhibitory concentration (IC50) is 220 nM. The inhibition at 2 µM in assay [2] worked out at 90%.
Turning to `CCOC(=O)c1c(-c2cccc3cc[nH]c23)c(C)n2c1-c1cc(OC)c(OC)cc1CC2` [Example 49], the IC50 in assay [1] came to 110 nM. Also, the inhibition at 2 µM in assay [2] was determined as 91%.
The corresponding values for `CCOC(=O)c1c(-c2c[nH]c3ccc(Cl)cc23)c(C)n2c1-c1cc(OC)c(OC)cc1CC2` [Example 50] are 330 nM and 77%.
Take `CCOC(=O)c1c(-c2c[nH]c3cc(F)ccc23)c(C)n2c1-c1cc(OC)c(OC)cc1CC2` [Example 52]: the IC50 in assay [1] amounted to 220 nM. Besides, in assay [2], the inhibition at 2 µM was determined as 81%.
On to `CCOC(=O)c1c(-c2cn(Cc3ccccc3)c3ccccc23)c(C)n2c1-c1cc(OC)c(OC)cc1CC2` [Example 56], for which the IC50 in assay [1] stood at 68 nM. Moreover, the inhibition at 2 µM in assay [2] came out at 64%.
As to `CCOC(=O)c1c(-c2cccc3c2ccn3CC)c(C)n2c1-c1cc(OC)c(OC)cc1CC2` [Example 57, Ethyl 2-(1-ethyl-1H-indol-4-yl)-8,9-dimethoxy-3-methyl-5,6-dihydropyrrolo[2,1-a]-isoquinoline-1-carboxylate], the 50% inhibitory concentration (IC50) in assay [1] is 1500 nM. Further, the inhibition at 2 µM in assay [2] is 89%.
On to `CCOC(=O)c1c(-c2cccc3c2ccn3CCC#N)c(C)n2c1-c1cc(OC)c(OC)cc1CC2` [Example 61], for which the IC50 in assay [1] is 200 nM. The inhibition at 2 µM in assay [2] stood at 90%.
With `CCOC(=O)c1c(-c2cccc3c(C(=O)C4CC4)c[nH]c23)c(C)n2c1-c1cc(OC)c(OC)cc1CC2` [Example 68, Ethyl 2-[3-(cyclopropylcarbonyl)-1H-indol-7-yl]-8,9-dimethoxy-3-methyl-5,6-dihydropyrrolo[2,1-a]isoquinoline-1-carboxylate], the inhibition at 2 µM in assay [2] stood at 43%.
Turning to `CCOC(=O)c1c(-c2cccc3c(C(=O)c4ccccc4)c[nH]c23)c(C)n2c1-c1cc(OC)c(OC)cc1CC2` [Example 71], the IC50 in assay [1] was 170 nM. Moreover, in assay [2], the inhibition at 2 µM came out at 72%.
Take `CCOC(=O)c1c(-c2ccc3[nH]cc(C(C)=O)c3c2)c(C)n2c1-c1cc(OC)c(OC)cc1CC2` [Example 72]: the inhibition at 2 µM in assay [2] was 81%.
As for `CCOC(=O)c1c(-c2ccc3ncoc3c2)c(C)n2c1-c1cc(OC)c(OC)cc1CC2` [Example 76, Ethyl 2-(1,3-benzoxazol-6-yl)-8,9-dimethoxy-3-methyl-5,6-dihydropyrrolo[2,1-a]isoquinoline-1-carboxylate], the IC50 in assay [1] turned out to be 150 nM. In addition, the inhibition at 2 µM in assay [2] was determined as 63%.
The matching figures for `CCCNC(=O)N1CCc2cc(-c3c(C(=O)OCC)c4n(c3C)CCc3cc(OC)c(OC)cc3-4)ccc21` [Example 81]: 100 nM and 89%.
The matching figures for `CCOC(=O)c1c(-c2ccc3c(c2)CCN3S(=O)(=O)c2ccccc2)c(C)n2c1-c1cc(OC)c(OC)cc1CC2` [Example 87]: below 30 nM and 95%.
Take `CCOC(=O)c1c(-c2ccc3c(c2)CCN3S(C)(=O)=O)c(C)n2c1-c1cc(OC)c(OC)cc1CC2` [Example 88]: the inhibition at 2 µM in assay [2] was found to be 40%.
